Test results: patent publication US20250222116A1, “PARP-1 DEGRADATION AGENT AND USE THEREOF” (XIZANG HAISCO PHARMACEUTICAL CO., LTD., priority 2021, published 2025)
Where two headings read alike, the source gives them in different places.

System: breast tumor cells MDA-MB-436
Experiment: MDA-MB-436 cell activity test (CellTiter-Glo, 7 days)
Type: cell-based, human
Conditions: for IC50: 7 days incubation, read-out: IC50 (nM), MDA-MB-436 cell inhibitory activity; for inhibition at 10 µM: MDA-MB-436, MDA-MB-436 cells, read-out: Max inh. % 10 μM
Method: Breast tumor cells MDA-MB-436 were purchased from ATCC, the culture medium was Leibovitz's L-15+10% FBS, and the cells were cultured in a CO2-free incubator at 37° C. On day 1, the cells in the exponential growth phase were collected, and the cell suspension was adjusted to 4000 cells/135 μL with the culture medium. 135 μL of the cell suspension was added to each well of a 96-well cell culture plate and incubated overnight. On day 2, compounds at different concentrations were added, and the plate was placed in the incubator and incubated for 7 days. After the culture was completed, according to operation instructions for a CellTiter-Glo kit (Promega, G7573), 75 μL of CTG solution, which was already pre-melted and equilibrated to room temperature, was added to each well, and the mixture was uniformly mixed for 2 minutes using a microplate shaker. The plate was placed at room temperature for 10 minutes, and then […] signal values were determined using an Envision2104 plate reader (PerkinElmer). The inhibition rate was calculated using formula (1), where RLUcompound was the readout of the drug treated group, RLUcontrol was the average value of the solvent control group, and RLUblank was the average value of the cell-free well. The IC50 value was calculated using GraphPad Prism software.

[1] = Homo sapiens, MDA-MB-436, 168 h, MDA-MB-436 cells

IC50 [1] [nM]	Structure (SMILES)	inhibition at 10 µM (Homo sapiens, 10 μM) [%]	Max inh. % 10 μM (MDA-MB-436 cells, 10 μM) [%]	IC50 (MDA-MB-436 cells) [nM]
15	CCc1cc2ncc(CN3CCN(c4ccc(C(=O)NC5CCN(CC6CCN(Cc7ccc(-n8c(O)nnc8-c8cc(C(C)C)c(O)cc8O)cc7)CC6)CC5)nc4)CC3)cc2[nH]c1=O [Compound 8, N-(1-((1-(4-(3-(2,4-dihydroxy-5-isopropylphenyl)-5-hydroxy-4H-1,2,4-triazol-4-yl)benzyl)piperidin-4-yl)methyl)piperidin-4-yl)-5-(4-((7-ethyl-6-oxo-5,6-dihydro-1,5-naphthyridin-3-yl)methyl)piperazin-1-yl)picolinamide]	99.8		
2	CCc1cc2ncc(CN3CCN(c4ccc(C(=O)NC5CN(c6ccc7c(c6)C(=O)N(C6CCC(=O)NC6=O)C7=O)C5)nc4)CC3)cc2[nH]c1=O (stereo not drawn) [Compound 11, N-(1-(2-(2,6-dioxopiperidin-3-yl)-1,3-dioxoisoindolin-5-yl)azetidin-3-yl)-5-(4-((7-ethyl-6-oxo-5,6-dihydro-1,5-naphthyridin-3-yl)methyl)piperazin-1-yl)picolinamide]	99.8		
44	CCc1cc2ncc(CN3CCN(c4ccc(C(=O)NC5CCN(C(=O)CC67CC8C[C@H](C6)C[C@H](C8)C7)CC5)nc4)CC3)cc2[nH]c1=O [Compound 12, N-(1-(2-((3R,5R)-adamantan-1-yl)acetyl)piperidin-4-yl)-5-(4-((7-ethyl-6-oxo-5,6-dihydro-1,5-naphthyridin-3-yl)methyl)piperazin-1-yl)picolinamide]	89.6		
5	CCc1cc2ncc(CN3CCN(c4ccc(C(=O)NC5CN(C(=O)CC67CC8C[C@H](C6)C[C@H](C8)C7)C5)nc4)CC3)cc2[nH]c1=O [Compound 13, N-(1-(2-((3R,5R)-adamantan-1-yl)acetyl)azetidin-3-yl)-5-(4-((7-ethyl-6-oxo-5,6-dihydro-1,5-naphthyridin-3-yl)methyl)piperazin-1-yl)picolinamide]	89.7		
25	CCc1cc2ncc(CN3CCN(c4ccc(C(=O)NC5CCN(C6CN(c7cccc8c7C(=O)N(C7CCC(=O)NC7=O)C8=O)C6)CC5)nc4)CC3)cc2[nH]c1=O (stereo not drawn) [Compound 15, N-(1-(1-(2-(2,6-dioxopiperidin-3-yl)-1,3-dioxoisoindolin-4-yl)azetidin-3-yl)piperidin-4-yl)-5-(4-((7-ethyl-6-oxo-5,6-dihydro-1,5-naphthyridin-3-yl)methyl)piperazin-1-yl)picolinamide]	87.2		
15	CCc1cc2ncc(CN3CCN(c4ccc(C(=O)NC5CN(c6cccc7c6C(=O)N(C6CCC(=O)NC6=O)C7=O)C5)nc4)CC3)cc2[nH]c1=O (stereo not drawn) [Compound 16, N-(1-(2-(2,6-dioxopiperidin-3-yl)-1,3-dioxoisoindolin-4-yl)azetidin-3-yl)-5-(4-((7-ethyl-6-oxo-5,6-dihydro-1,5-naphthyridin-3-yl)methyl)piperazin-1-yl)picolinamide]	78.8		
61	CCc1cc2ncc(CN3CCN(c4ccc(C(=O)NC5CN(c6cc7c(cc6F)C(=O)N(C6CCC(=O)NC6=O)C7=O)C5)nc4)CC3)cc2[nH]c1=O (stereo not drawn) [Compound 17, N-(1-(2-(2,6-dioxopiperidin-3-yl)-6-fluoro-1,3-dioxoisoindolin-5-yl)azetidin-3-yl)-5-(4-((7-ethyl-6-oxo-5,6-dihydro-1,5-naphthyridin-3-yl)methyl)piperazin-1-yl)picolinamide]	99		
21	CCc1cc2ncc(CN3CCN(c4ccc(C(=O)NC5CCN(c6cccc7c6C(=O)N(C6CCC(=O)NC6=O)C7=O)CC5)nc4)CC3)cc2[nH]c1=O (stereo not drawn) [Compound 19, N-(1-(2-(2,6-dioxopiperidin-3-yl)-1,3-dioxoisoindolin-4-yl)piperidin-4-yl)-5-(4-((7-ethyl-6-oxo-5,6-dihydro-1,5-naphthyridin-3-yl)methyl)piperazin-1-yl)picolinamide]	90.3		
25	CCc1cc2ncc(CN3CCN(c4ccc(C(=O)N[C@H]5CCN(c6ccc7c(c6)C(=O)N(C6CCC(=O)NC6=O)C7=O)C5)nc4)CC3)cc2[nH]c1=O (stereo partly drawn) [Compound 21, N-((3S)-1-(2-(2,6-dioxopiperidin-3-yl)-1,3-dioxoisoindolin-5-yl)pyrrolidin-3-yl)-5-(4-((7-ethyl-6-oxo-5,6-dihydro-1,5-naphthyridin-3-yl)methyl)piperazin-1-yl)picolinamide]	88.9		
15	CCc1cc2ncc(CN3CCN(c4ccc(C(=O)N[C@H]5CC[C@@H](Nc6ccc7c(c6)C(=O)N(C6CCC(=O)NC6=O)C7=O)CC5)nc4)CC3)cc2[nH]c1=O (stereo partly drawn) [Compound 27, N-((1s,4s)-4-((2-(-2,6-dioxopiperidin-3-yl)-1,3-dioxoisoindolin-5-yl)amino)cyclohexyl)-5-(4-((7-ethyl-6-oxo-5,6-dihydro-1,5-naphthyridin-3-yl)methyl)piperazin-1-yl)picolinamide]	95.8		
23	CCc1cc2ncc(CN3CCN(c4ccc(C(=O)N[C@H]5C[C@@H](Nc6ccc7c(c6)C(=O)N(C6CCC(=O)NC6=O)C7=O)C5)nc4)CC3)cc2[nH]c1=O (stereo partly drawn) [Compound 37, N-((1s,3s)-3-((2-(2,6-dioxopiperidin-3-yl)-1,3-dioxoisoindolin-5-yl)amino)cyclobutyl)-5-(4-((7-ethyl-6-oxo-5,6-dihydro-1,5-naphthyridin-3-yl)methyl)piperazin-1-yl)picolinamide]	92.1		
12	CCc1cc2ncc(CN3CCN(c4ccc(C(=O)N[C@H]5C[C@H](Nc6ccc7c(c6)C(=O)N(C6CCC(=O)NC6=O)C7=O)C5)nc4)CC3)cc2[nH]c1=O (stereo partly drawn) [Compound 38, N-((1r,3r)-3-((2-(2,6-dioxopiperidin-3-yl)-1,3-dioxoisoindolin-5-yl)amino)cyclobutyl)-5-(4-((7-ethyl-6-oxo-5,6-dihydro-1,5-naphthyridin-3-yl)methyl)piperazin-1-yl)picolinamide]	77.1		
11	CCc1cc2ncc(CN3CCN(c4ccc(C(=O)N[C@H]5C[C@@H](Nc6cc7c(cc6F)C(=O)N(C6CCC(=O)NC6=O)C7=O)C5)nc4)CC3)cc2[nH]c1=O (stereo partly drawn) [Compound 41, N-((1s,3s)-3-((2-(2,6-dioxopiperidin-3-yl)-6-fluoro-1,3-dioxoisoindolin-5-yl)amino)cyclobutyl)-5-(4-((7-ethyl-6-oxo-5,6-dihydro-1,5-naphthyridin-3-yl)methyl)piperazin-1-yl)picolinamide]	85.7		
	CCc1cc2ncc(CN3CCN(c4ccc(C(=O)NC5CC(Nc6ccc7c(c6)C(=O)N([C@@H]6CCC(=O)NC6=O)C7=O)C5)nc4)CC3)cc2[nH]c1=O (stereo partly drawn) [Compound 42, N-((1r, 3r)-3-((2-(2,6-dioxopiperidin-3-yl)-1,3-dioxoisoindolin-5-yl)amino)cyclobutyl)-5-(4-((7-ethyl-6-oxo-5,6-dihydro-1,5-naphthyridin-3-yl)methyl)piperazin-1-yl)picolinamide]		86.3	17
28	CCc1cc2ncc(CN3CCN(c4ccc(C(=O)NC5CCN(c6ccc7c(c6)C(=O)N(C6CCC(=O)NC6=O)C7)CC5)nc4)CC3)cc2[nH]c1=O (stereo not drawn) [Compound 48, N-(1-(2-(2,6-dioxopiperidin-3-yl)-3-oxoisoindolin-5-yl)piperidin-4-yl)-5-(4-((7-ethyl-6-oxo-5,6-dihydro-1,5-naphthyridin-3-yl)methyl)piperazin-1-yl)picolinamide]	94.6		
101	CCc1cc2ncc(CN3CC=C(c4ccc(C(=O)NC5CCN(c6ccc7c(c6)C(=O)N(C6CCC(=O)NC6=O)C7=O)CC5)nc4)CC3)cc2[nH]c1=O (stereo not drawn) [Compound 49, N-(1-(2-(2,6-dioxopiperidin-3-yl)-1,3-dioxoisoindolin-5-yl)piperidin-4-yl)-1′-((7-ethyl-6-oxo-5,6-dihydro-1,5-naphthyridin-3-yl)methyl)-1′,2′,3′,6′-tetrahydro-[3,4′-bipyridine]-6-carboxamide]	93.8		
19	CCc1cc2ncc(CN3CCN(c4ccc(C(=O)N[C@H]5CCN(c6cc7c(cc6F)C(=O)N(C6CCC(=O)NC6=O)C7=O)C5)nc4)CC3)cc2[nH]c1=O (stereo partly drawn) [Compound 51, N-((3S)-1-(2-(2,6-dioxopiperidin-3-yl)-6-fluoro-1,3-dioxoisoindolin-5-yl)pyrrolidin-3-yl)-5-(4-((7-ethyl-6-oxo-5,6-dihydro-1,5-naphthyridin-3-yl)methyl)piperazin-1-yl)picolinamide]	97.5		
58	CCc1cc2ncc(CN3CC=C(c4ccc(C(=O)N[C@H]5CCN(c6ccc7c(c6)C(=O)N(C6CCC(=O)NC6=O)C7=O)C5)nc4)CC3)cc2[nH]c1=O (stereo partly drawn) [Compound 53, N-((3S)-1-(2-(2,6-dioxopiperidin-3-yl)-1,3-dioxoisoindolin-5-yl)pyrrolidin-3-yl)-1′-((7-ethyl-6-oxo-5,6-dihydro-1,5-naphthyridin-3-yl)methyl)-1′,2′,3′,6′-tetrahydro-[3,4′-bipyridine]-6-carboxamide]	98		
